Test results reported in article PMC6916333, “A lysin motif effector subverts chitin‐triggered immunity to facilitate arbuscular mycorrhizal symbiosis” (The New Phytologist, 2019).
Like-named read-outs stand apart in the source and are kept apart here.

Target: T1, RiSLM (Rhizophagus irregularis, UniProt U9TZV5)
T1 construct: gene GLOIN_2v1561425; without signal peptide; single LysM domain; expressed in E. coli ORIGAMI from pET-SUMO, SUMO tag removed by ULP-1; c; 7 kDa (faint 14 and 21 kDa bands, possible oligomers); NT.115 RED dye label
T1 sequence (U9TZV5 entry or part of it): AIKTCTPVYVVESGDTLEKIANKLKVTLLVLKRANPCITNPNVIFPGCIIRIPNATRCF
Test: microscale thermophoresis
Assay type: binding
Conditions: dye-labelled protein 20 nM

[1] = 50 mM Tris pH 7.4, 10 mM MgCl2, 150 mM NaCl, 0.05% Tween 20, 22 °C

Compound	Kd [1]	further results
CC(=O)N[C@H]1[C@H](O[C@H]2[C@H](O)[C@@H](NC(C)=O)C(O)O[C@@H]2CO)O[C@H](CO)[C@@H](O[C@@H]2O[C@H](CO)[C@@H](O[C@@H]3O[C@H](CO)[C@@H](O)[C@H](O)[C@H]3NC(C)=O)[C@H](O)[C@H]2NC(C)=O)[C@@H]1O (some centres unmarked) [CO4, chitotetraose]	37.1 ± 1.4 µM	–
CC(=O)N[C@H]1[C@H](O[C@H]2[C@H](O)[C@@H](NC(C)=O)[C@H](O[C@H]3[C@H](O)[C@@H](NC(C)=O)C(O)O[C@@H]3CO)O[C@@H]2CO)O[C@H](CO)[C@@H](O[C@@H]2O[C@H](CO)[C@@H](O[C@@H]3O[C@H](CO)[C@@H](O)[C@H](O)[C@H]3NC(C)=O)[C@H](O)[C@H]2NC(C)=O)[C@@H]1O (some centres unmarked) [CO5]	59.4 ± 2.1 µM	–
CC(=O)N[C@H]1[C@H](O[C@H]2[C@H](O)[C@@H](NC(C)=O)[C@H](O[C@H]3[C@H](O)[C@@H](NC(C)=O)[C@H](O[C@H]4[C@H](O)[C@@H](NC(C)=O)C(O)O[C@@H]4CO)O[C@@H]3CO)O[C@@H]2CO)O[C@H](CO)[C@@H](O[C@@H]2O[C@H](CO)[C@@H](O[C@@H]3O[C@H](CO)[C@@H](O[C@@H]4O[C@H](CO)[C@@H](O)[C@H](O)[C@H]4NC(C)=O)[C@H](O)[C@H]3NC(C)=O)[C@H](O)[C@H]2NC(C)=O)[C@@H]1O (some centres unmarked) [CO7, chitoheptaose]	8.8 ± 1.2 µM	–
LCO-IV(C18:1)	–	Kd (25 mM sodium cacodylate pH 6.0, 1 mM MgCl2, 1 mM CaCl2, 250 mM sucrose, 0.175% Fos-choline-10, 0.5% ethanol, 22 °C, single binding event, read-out: K d): ~0.24 µM
LCO-IV(C18:1, S)	–	Kd (25 mM sodium cacodylate pH 6.0, 1 mM MgCl2, 1 mM CaCl2, 250 mM sucrose, 0.175% Fos-choline-10, 0.5% ethanol, 22 °C, first (high-affinity) of two binding events, read-out: K d): ~0.015 µM
